Legend:
[1] = test system: mice; experiment: Acute intravenous toxicity in mice, 7-day observation, LD50 by Litchfield and Wilcoxon; type: in vivo, mouse (Swiss ICR CD-1); conditions: for MORTALITIES/NUMBER TREATED / AVERAGE SURVIVOR WEEKLY BODY WEIGHT CHANGE: single intravenous; for MORTALITIES/NUMBER TREATED: 7 days; for AVERAGE SURVIVOR WEEKLY BODY WEIGHT CHANGE: survivors
Experimental: Sodium [2-(trifluoromethyl) benzamido] acetate was prepared as a 20% w/v solution in sterile water for injection and the pH was adjusted to 7.0 using 0.1 N HCl.
A total of 14 mice (7 male, 24.6-30.0 g; 7 females, 18.6-26.0 g; Swiss ICR CD-1, Charles River) were used. Animals were housed according to standard operating procedures and marked for identification with picric acid.
Groups of 2-3 mice received single intravenous injections of sodium [2-(trifluoromethyl)benzamido]acetate according to the followinq schedule:
Measured single doses were injected into the lateral tail vein at a rate of 1 ml/min. The animals were observed immediately after dosing and during the 7-day observation period for pharmacotoxic reactions. Recording of terminal body weights and general necrospy of the thoracic and abdominal organs was performed after 7 days. An LD50 value was calculated using the method of Litchfield and Wilcoxon (J. Pharmacol. Exp. Ther. 96:99,1949).

[2] = test system: liver or kidney; experiment: In vivo fluorine (19F) MR spectra of liver and kidney in anesthetized rabbit; conditions: 4 mmol F/kg intravenous, 1.9 Tesla
From the text: (§1) An anesthetized rabbit was placed in a 12 inch bore, 1.9 Tesla MRI magnet. An RF coil ([…], I.D., 4 cm, O.D.) was placed on the surface of the liver or a kidney which were excised surgically. Fluorine spectra were obtained following 4 mmol F/kg intravenous doses of a solution of sodium [2-(trifluoromethyl)benzamido]acetate (20%, w/v, 2.2 M F, of the compound).

[3] = test system: liver, heart, kidney, skeletal muscle, spleen, blood and urine samples; experiment: Fluorine analysis of rabbit tissue, blood and urine samples by MR spectroscopy; type: in vivo; conditions: 4 mmol F/kg intravenous, conclusion of experiment
From the text: as §1
At the conclusion of the experiment, the rabbit was killed and liver, heart, kidney, skeletal muscle, spleen, blood and urine samples were analyzed for fluorine by MR spectroscopy.

## O=C([O-])CNC(=O)c1ccccc1C(F)(F)F.[Na+] [sodium [2-(trifluoromethyl)benzamido]acetate]
[1]; 1000 mg/kg
  MORTALITIES/NUMBER TREATED: 0/2
  AVERAGE SURVIVOR WEEKLY BODY WEIGHT CHANGE: 0.1 g
[1]; 2000 mg/kg
  MORTALITIES/NUMBER TREATED: 0/2
  AVERAGE SURVIVOR WEEKLY BODY WEIGHT CHANGE: 2.2 g
[1]; 4000 mg/kg
  MORTALITIES/NUMBER TREATED: 0/2
  AVERAGE SURVIVOR WEEKLY BODY WEIGHT CHANGE: 1.8 g
[1]; 6000 mg/kg
  MORTALITIES/NUMBER TREATED: 1/3
  AVERAGE SURVIVOR WEEKLY BODY WEIGHT CHANGE: 1.0 g
[1]; 7000 mg/kg
  MORTALITIES/NUMBER TREATED: 2/3
  AVERAGE SURVIVOR WEEKLY BODY WEIGHT CHANGE: 2.7 g
[1]; 8000 mg/kg
  MORTALITIES/NUMBER TREATED: 2/2
[1]; intravenous, all deaths
  reactions preceding death: mild convulsions
  time of deaths after treatment: ≤ 10 min
[1]; intravenous, all survivors
  time after treatment within which all survivors appeared normal: ≤ 5 h
[1]; intravenous, doses=2000 mg/kg (so in the source)
  toxic reactions (hyperactivity): mild hyperactivity
[1]; intravenous, doses=4000 mg/kg (so in the source)
  toxic reactions (hypoactivity): dose-related hypoactivity
[1]; intravenous, one survivor dosed with 1000 mg
  body weight of one survivor, week after treatment: body weight loss
[1]; intravenous, one week
  body weight of all other survivors: weight gains
[1]; mouse, intravenous, compound dose
  estimated mouse intravenous LD50: 6500 mg/kg
[1]; summary statement of toxicity studies
  intravenous toxicity profile: extremely good intravenous toxicity profile
[1]; thoracic and abdominal organs, following one week observation
  necropsy findings: No abnormalities were observed
[2]; both liver and kidney
  fluorine spectra in liver and kidney: only a single peak which was the same as the spectrum from a solution of sodium [2-(trifluoromethyl)benzamido]acetate
[2]; kidney
  fluorine signal intensity in kidney: peaked very rapidly in the kidney and remained elevated for several minutes
[2]; liver versus kidney
  fluorine signal intensity in liver: less than that for the kidney and took a longer time to peak
[3]
  fluorine concentrations in kidney, urine and blood: highest concentrations of fluorine
[3]; specimens other than kidney, urine, blood
  fluorine in other tissue specimens: minimal fluorine detected
